Results on two compounds are retold here after patent US20240197749A1, “METHOD OF INHIBITING LIPOGENESIS WITH UBIQUITIN-SPECIFIC PEPTIDASE 24 INHIBITOR COMPOSITION” (NATIONAL CHENG KUNG UNIVERSITY, priority 2022, published 2024).

Each structure is given as a SMILES string.

The target in data set [1] is T1, USP24 (Homo sapiens, UniProt Q9UPU5). To be noted: known; cited from earlier work.
Data set [2] concerns the target T1, USP24. Briefly: inhibition of USP24 activity. To be noted: in comparison to USP24-i1; not shown in the figures. It counts as biochemical.
For another data set, the system named is USP24-WT mice. Nature of the data set: liver tissue section H&E staining after normal diet or high-fat diet and USP24 inhibitor. Format: in vivo. As to conditions: USP24 inhibitor oral 2 months. The source says:
(§1) Animal-related experiments had been reviewed and approved by the Institutional Animal Care and Use Committee (IACUC) of National Cheng Kung University (NCKU). These genetically modified mice were generated at the National Laboratory Animal Center (NLAC) in Tainan, Taiwan. After breeding, 2 months-old wild-type mice and genetically modified mice were used to study lipogenesis progress. The cages provided adequate space, and the population density allowed the animals to move freely. The provided feed was sufficient for the normal growth and maintenance of regular body weight in both wild-type and genetically modified mice. Genetically modified mice had access to fresh, uncontaminated drinking water. Genetically modified mice were observed and cared for at least 2 to 3 times a week. All animal-related procedures were conducted in accordance with relevant guidelines and regulations.
It was known that USP24 inhibitor (USP24-i1, NCI677397, Formula I-3-3) could block USP24 catalytic activity, delaying or reversing cancer drug resistance.

In another data set the test system is USP24-WT HFD mice. Nature of the data set: Oil-Red-O staining assay of liver tissue sections (hepatic lipid accumulation). As to conditions: i.p. 10 mg/kg once a week for two consecutive months. It counts as in vivo.
Text: as §1
In this embodiment, the analysis of hepatic lipid accumulation and distribution were performed using the Oil-Red-O staining assay. […] The USP24 inhibitor was administered by intraperitoneal injection (i.p.) at a dose of 10 mg/kg once a week for two consecutive months. Statistical analysis was conducted using a t-test, where * indicates p<0.01, and ** indicates p<0.005 (FIG. 5B).

The next data set relates to 3T3-L1 cells. Briefly: differentiation of 3T3-L1 cells into adipocytes, Oil-Red-O staining. Format: cell-based, mouse. As to conditions: 5 μM or 10 μM, MDIR induction, Oil-Red-O on days 8-10; dose-dependent; vs DMSO. The method, then: (§2) Commercially available mouse fibroblast cell line 3T3-L1 was cultured in commercially available Dulbecco's Modified Eagle Medium (DMEM) containing 10% fetal bovine serum (FBS), 100 μg/mL streptomycin, and 100 U/ml penicillin G sodium salt. All cell cultures were maintained at 37° C. with 5% CO2.
Please referred to FIG. 6A, which illustrated the experimental procedure for evaluating the effects of USP24 inhibitor on the induction of 3T3-L1 cells into adipocytes according to an embodiment of the present invention. When 3T3-L1 cells reached approximately 70% confluence, the MDIR induction medium containing USP24 inhibitor (5 μM or 10 μM) was added to the cells on day 0 and cultured for 2 days. Subsequently, on day 2, the induction medium was replaced with fresh medium containing USP24 inhibitor (5 μM or 10 μM) and insulin (10 μg/mL), and the cells were cultured for an additional 2 days. Next, the culture medium was changed the fresh medium containing USP24 inhibitor on day 4, and the cells were cultured for 4-6 more days, allowing 3T3-L1 cells to differentiate into adipocytes or adipocyte-like cells. And then, the cells were stained with Oil-Red-O (on days 8-10) to assess the influence of USP24 inhibitor on adipocyte formation, as shown in FIGS. 6B and 6C. […]

In data set [3] the test system is differentiated 3T3-L1 cells. Nature of the data set: Western blotting of proteins associated with adipocyte formation in 3T3-L1 cells. Format: cell-based, mouse. To be noted: Western blot, vs DMSO. Here is the method:
as §2
Please referred to FIG. 6A, which illustrated the experimental procedure for evaluating the effects of USP24 inhibitor on the induction of 3T3-L1 cells into adipocytes according to an embodiment of the present invention. When 3T3-L1 cells reached approximately 70% confluence, the MDIR induction medium containing USP24 inhibitor (5 μM or 10 μM) was added to the cells on day 0 and cultured for 2 days. Subsequently, on day 2, the induction medium was replaced with fresh medium containing USP24 inhibitor (5 μM or 10 μM) and insulin (10 μg/mL), and the cells were cultured for an additional 2 days. Next, the culture medium was changed the fresh medium containing USP24 inhibitor on day 4, and the cells were cultured for 4-6 more days, allowing 3T3-L1 cells to differentiate into adipocytes or adipocyte-like cells. And then, the cells were stained with Oil-Red-O (on days 8-10) to assess the influence of USP24 inhibitor on adipocyte formation, as shown in FIGS. 6B and 6C.
The MDIR induction medium included 0.5 mM 3-isobutyl-1-methylxanthine (IBMX), 1 μM dexamethasone (D), […] insulin (I), and 1 μM rosiglitazone (R) in Dulbecco's Modified Eagle Medium (DMEM). The components M, D, R, and USP24 inhibitor were dissolved in dimethyl sulfoxide (DMSO) and then added to DMEM. The insulin culture medium contained 10 μg/mL insulin in DMEM, and the fresh medium included 10% fetal bovine serum (FBS) in DMEM.
It was known that PPAR-γ and PLIN1 were important markers for adipocytes. In this embodiment, commercially available antibodies were used to perform Western blotting on 3T3-L1 cells to evaluate the expression levels of proteins associated with adipocyte formation in response to USP24-i-a treatment, as shown in FIGS. 7A to 7G.

Another data set relates to CREB. Nature of the data set: CREB and its phosphorylation during 3T3-L1 differentiation. Format: cell-based, mouse.
A further data set relates to HFD-mice. Briefly: serum tests / safety assay by ELISA in ND and HFD mice. Format: in vivo. As to conditions: serum of HFD mice; i.p. 10 mg/kg once a week for two months. Here is the method: As shown in FIGS. 10A to 10H, serum were collected from normal diet (ND) and high fat diet (HFD) mice with or without USP24-i-101 treatment to study the safety assay by ELISA assay.
In this Example, wild-type mice were fed a normal diet (ND) or a high-fat diet (HFD), and they were injected intraperitoneally (i.p.) with 10 mg/kg of USP24-i once a week for two consecutive months. Subsequently, mouse sera were collected, and serum-related indices were examined to assess the impact of USP24-i on lipogenesis and liver function, as depicted in FIGS. 10A to 10H.
There was no statistically significant difference of the time of latency to fall off the rotarod between the USP 24 KO mice and the wild-type USP 24 mice, as shown in FIG. 10B. Mouse sera were collected from normal diet (ND) and high fat diet (HFD) mice with or without USP24-i treatment to perform the safety evaluation by ELISA assay. […] Therefore, USP24 inhibitor could inhibit the lipogenesis, thereby improving liver activity.
A general note: In an ELISA, binding on a coated surface is turned into a signal by an enzyme label.

Data set [4] deals with HFD mice. Briefly: treatment of HFD mice after obesity: body weight, visceral fat, fatty liver, eWAT and iWAT. It counts as in vivo. The source says:
(§3) In the previous studies of the inventors, USP24-i-101 treated (i.p.) the HFD mice from the initiation of the experiment. […] In this Example, USP24-i-101 treated the mice after obesity, not from initiation. Mice were fed with HFD for two months and then treated with USP24-i-101 one month (two times per week, i.p.).
In addition, USP24-i-101 could inhibit eWAT and iWAT of mice. The subcutaneous fat and visceral fat (around organs such as kidney and reproductive organs) were collected to analyze the size of the epididymal WAT [eWAT, as shown in FIG. 11D (a), upper panel of FIG. 11D(c) and upper panel of FIG. 11D(d)] and inguial WAT [iWAT, as shown in FIG. 11D(b), lower panel of FIG. 11D(c) and lower panel of FIG. 11D(d)].

Data set [5] has as its system HFD mice. Nature of the data set: treatment of HFD mice from the initiation of the experiment (previous studies of the inventors). Format: in vivo. To be noted: HFD mice treated i.p. from the initiation of the experiment.
Text: as §3

For data set [6], the system named is HFD mice. Nature of the data set: magnetic resonance imaging (MRI) of level and distribution of fat in HFD mice. To be noted: MRI in vivo signal and collected kidney organs. From the text:
The HFD mice with or without USP24-i-101 treatment according to the experimental flowchart of FIG. 12A were examined by magnetic resonance imaging (MRI) equipment to assess the level and distribution of fat inside them.

Where [7] appears, read: HFD two months, then treatment one month, two times per week, i.p.

T1 sequence (Q9UPU5 whole entry, species assumed): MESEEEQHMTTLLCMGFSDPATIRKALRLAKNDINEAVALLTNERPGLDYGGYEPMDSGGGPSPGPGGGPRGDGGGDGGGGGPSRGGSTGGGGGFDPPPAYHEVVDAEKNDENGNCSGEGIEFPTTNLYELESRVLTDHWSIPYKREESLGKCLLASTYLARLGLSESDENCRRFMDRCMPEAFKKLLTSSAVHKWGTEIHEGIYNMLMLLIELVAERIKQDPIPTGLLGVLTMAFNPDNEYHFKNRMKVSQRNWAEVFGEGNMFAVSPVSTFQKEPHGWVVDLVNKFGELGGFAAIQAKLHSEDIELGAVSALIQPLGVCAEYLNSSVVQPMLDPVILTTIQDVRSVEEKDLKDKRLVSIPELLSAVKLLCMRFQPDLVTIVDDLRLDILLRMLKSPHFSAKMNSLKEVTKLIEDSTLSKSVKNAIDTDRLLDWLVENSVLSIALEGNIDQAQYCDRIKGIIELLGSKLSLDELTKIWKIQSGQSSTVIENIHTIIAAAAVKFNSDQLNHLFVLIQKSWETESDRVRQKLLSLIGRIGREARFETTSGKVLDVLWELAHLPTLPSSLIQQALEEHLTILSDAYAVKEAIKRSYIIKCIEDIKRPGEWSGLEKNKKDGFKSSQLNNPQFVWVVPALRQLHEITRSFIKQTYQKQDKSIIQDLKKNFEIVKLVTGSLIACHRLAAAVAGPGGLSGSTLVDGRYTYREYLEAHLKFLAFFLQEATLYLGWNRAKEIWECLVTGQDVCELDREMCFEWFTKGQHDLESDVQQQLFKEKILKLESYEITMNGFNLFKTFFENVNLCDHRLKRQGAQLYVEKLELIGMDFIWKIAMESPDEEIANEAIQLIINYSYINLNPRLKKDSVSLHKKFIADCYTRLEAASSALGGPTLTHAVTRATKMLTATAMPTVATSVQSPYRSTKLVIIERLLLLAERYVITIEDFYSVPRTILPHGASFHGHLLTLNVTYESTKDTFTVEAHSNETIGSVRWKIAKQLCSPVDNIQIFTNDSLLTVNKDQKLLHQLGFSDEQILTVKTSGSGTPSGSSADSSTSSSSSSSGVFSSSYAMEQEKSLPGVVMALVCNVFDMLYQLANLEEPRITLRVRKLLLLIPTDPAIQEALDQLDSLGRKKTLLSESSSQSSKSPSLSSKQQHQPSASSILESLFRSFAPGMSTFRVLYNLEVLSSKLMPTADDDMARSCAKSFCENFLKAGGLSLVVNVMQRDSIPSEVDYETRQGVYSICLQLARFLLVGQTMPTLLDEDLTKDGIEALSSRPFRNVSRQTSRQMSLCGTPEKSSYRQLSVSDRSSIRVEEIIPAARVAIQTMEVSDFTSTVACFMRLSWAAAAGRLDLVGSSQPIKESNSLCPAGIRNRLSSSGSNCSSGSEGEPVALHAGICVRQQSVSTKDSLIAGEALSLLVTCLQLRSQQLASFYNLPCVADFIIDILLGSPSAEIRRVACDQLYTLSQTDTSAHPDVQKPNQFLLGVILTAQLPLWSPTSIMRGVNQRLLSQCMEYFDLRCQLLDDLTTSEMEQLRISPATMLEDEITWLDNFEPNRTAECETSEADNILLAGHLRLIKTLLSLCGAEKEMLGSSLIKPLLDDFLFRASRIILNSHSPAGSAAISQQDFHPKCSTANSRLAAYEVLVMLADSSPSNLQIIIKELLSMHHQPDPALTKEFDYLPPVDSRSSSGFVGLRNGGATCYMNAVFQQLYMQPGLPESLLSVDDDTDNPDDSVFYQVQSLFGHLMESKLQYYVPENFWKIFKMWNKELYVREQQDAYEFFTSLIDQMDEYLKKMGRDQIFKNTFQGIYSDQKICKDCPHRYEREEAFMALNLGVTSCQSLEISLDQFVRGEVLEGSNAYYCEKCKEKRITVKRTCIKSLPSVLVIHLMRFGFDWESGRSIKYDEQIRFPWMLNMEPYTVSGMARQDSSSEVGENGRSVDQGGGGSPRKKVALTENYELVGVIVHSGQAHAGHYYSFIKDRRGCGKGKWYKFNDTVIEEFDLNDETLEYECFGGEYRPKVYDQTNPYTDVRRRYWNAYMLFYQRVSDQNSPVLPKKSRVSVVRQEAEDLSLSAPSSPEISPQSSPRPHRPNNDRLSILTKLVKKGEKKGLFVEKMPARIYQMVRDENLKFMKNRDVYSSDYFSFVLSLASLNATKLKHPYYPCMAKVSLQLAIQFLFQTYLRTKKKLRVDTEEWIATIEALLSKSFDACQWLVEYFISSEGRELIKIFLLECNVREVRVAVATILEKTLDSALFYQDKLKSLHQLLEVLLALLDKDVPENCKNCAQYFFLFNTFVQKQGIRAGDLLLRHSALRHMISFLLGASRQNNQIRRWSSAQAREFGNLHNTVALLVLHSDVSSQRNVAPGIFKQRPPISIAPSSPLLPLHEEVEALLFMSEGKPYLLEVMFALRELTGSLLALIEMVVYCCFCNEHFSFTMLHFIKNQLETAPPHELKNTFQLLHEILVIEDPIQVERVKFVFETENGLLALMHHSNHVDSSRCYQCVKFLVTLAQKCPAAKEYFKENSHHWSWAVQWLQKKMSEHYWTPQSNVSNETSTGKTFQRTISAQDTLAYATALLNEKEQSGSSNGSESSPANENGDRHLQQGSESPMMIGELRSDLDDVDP

Turning to `CN1CCN(CCCCN2c3ccccc3Sc3ccc(C(=O)c4ccccc4)cc32)CC1` [USP24-i1], the USP24 catalytic activity result on USP24 [1] is “could block”.

In the case of `CN1CCN(CCN2c3ccccc3Sc3ccc(C(=O)c4ccccc4)cc32)CC1` [USP24-i-a], on USP24 [2], the “inhibition of USP24 activity” value is “superior inhibition”. In addition, in the data set on USP24-WT mice (USP24-WT HFD mice, 2 months high-fat diet), the “lipid droplets in liver (H&E)” value is “few to no lipid droplets”. For the same compound, in the data set with USP24-WT mice (USP24-WT ND mice, 2 months normal diet), the “lipid droplets in liver (H&E)” value is on record as “few to no lipid droplets”. In addition, the “signals of Oil-Red-O staining in the liver” value with USP24-WT HFD mice was “significantly reduced or nearly disappeared”. Besides, the lipid droplet accumulation entry in the data set on 3T3-L1 cells is “significant reversal”. In addition, in data set [3], the “expression level of C/EBPβ” value is “also reduced” and the “expression level of SREBP1” value is on record as “also reduced”. Further, in data set [3] (dose-dependent), the “expression level of PLIN1 (Perilipin 1)” value is given as “reduced” and the “expression level of PPAR-γ” value was “reduced”. Besides, in the data set with CREB, the CREB entry is “inhibited” and the CREB phosphorylation result was “inhibited”. Moreover, in the data set with HFD-mice, the “GOT (glutamic oxaloacetic transaminase)” value was “significantly inhibited”, the “GPT (glutamic pyruvic transaminase)” value is given as “significantly inhibited”, the “albumin (ALB)” value was “did not significantly change” and the total cholesterol entry is “significantly inhibited”. Moreover, in the data set on HFD-mice, the “total protein (TP)” value is “did not significantly change” and the “triglyceride (TG)” value was “did not significantly change”. Moreover, in the data set on HFD mice [4] (HFD mice), the “size of epididymal WAT (eWAT)” value is “could be inhibited” and the “size of inguial WAT (iWAT)” value was “could be inhibited”. Besides, in the data set on HFD mice [4] (setting [7]), the body weight result is listed as “significantly decreased”, the fatty liver result was “really decreased” and the visceral fat result is on record as “really decreased”. Besides, in the data set on HFD mice [5], the body weight result was “could be inhibited” and the fatty liver result is recorded as “could be inhibited”. In addition, the “signal of fat around subcutaneous and organs” value in the data set on HFD mice [6] is “significantly inhibited”.
